The subject of data set [1] is Na+-dependent Cl-/HCO3 exchanger (NCBE). In words: Inhibition of the Na+-dependent Cl-/HCO3- exchanger (NCBE) in human endothelial cells (BCECF fluorescence, FLIPR, pHi recovery). In kind it is cell-based. Conditions: inhibitor concentration of 10 μM; human endothelial cells (ECV-304); in presence of 50 μM HOE 642. The procedure:
Inhibition of the Na^+-dependent Cl^−/HCO3 exchanger (NCBE) in human endothelial cells
Human endothelial cells (ECV-304) were detached from culture flasks with the aid of trypsin/EDTA buffer (0.05/0.02% in phosphate buffer) and, after centrifugation (100 g, 5 min), taken up in a buffered salt solution (mmol/l: 115 NaCl, 20 NH4Cl, 5 KCl, 1 CaCl2, 1 MgSO4, 20 N-(2-hydroxyethyl)piperazine-N=-2-ethanesulfonic acid (HEPES), 5 glucose and 1, g/l of bovine serum albumin; pH 7.4). This cell suspension was incubated at 37° C. for 20 min with 5 μM BCECF acetoxymethyl ester. The cells were then washed and resuspended in a sodium- and bicarbonate-free buffer solution (mmol/l: 5 HEPES, 133.8 choline chloride, 4.7 KCl, 1.25 MgCl2, 0.97 K2HPO4, 0.23 KH2PO4, 5 glucose; pH 7.4).
For the subsequent fluorescence measurement in the FLIPR (Fluorescent Imaging Plate Reader), 100 μl of this cell suspension in each case containing 20,000 cells were added by pipette per well of a 96-well microtiter plate and this microtiter plate was centrifuged (100 g, 5 min). In the FLIPR, 100 μl of buffer solution in each case were then removed from a further prepared microtiter plate and added by pipette to each of the 96 wells of the measuring plate. In this case, for a 100% control, i.e. a recovery of the intracellular pH (pHi) by means of the NCBE, a bicarbonate- and sodium-containing buffer solution (mmol/l: 5 HEPES, 93.8 NaCl, 40 NaHCO3, 4.7 KCl, 1.25 CaCl2, 1.25 MgCl2, 0.97 Na2HPO4, 0.23 NaH2PO4, 5 glucose; pH 7.4) which contained 50 μM HOE 642 was used. […]
After addition of the buffer solutions to the dye-loaded acidified cells situated in the measuring plate, the increase in the fluorescence intensity which corresponded to an increase in the pHi was determined in each well of the microtiter plate. The kinetics were in this case recorded at 35° C. over a period of 2 minutes.
The increase in the fluorescence intensities for different concentrations of the compounds according to the invention was related to the two controls and from this the inhibitory action of the substances was determined.

For the molecule `CCCCc1nc(SC)c(C(=O)OCC)n1Cc1cccc(Cc2cccc(S(=O)(=O)NC#N)c2)c1` [Example 2, Ethyl 2-butyl-5-methylsulfanyl-3-[3-(3′-cyanoaminosulfonylbenzyl)benzyl]-3H-imidazole-4-carboxylate], the melting point was 172 to 174 °C. Also, in data set [1], the “Residual activity of the NCBE” value came out at 35.2%.
The molecule `N#CNS(=O)(=O)c1cccc(Cc2cccc(Cn3c(-c4ccccc4)nc(Cl)c3C=O)c2)c1` [Example 3, 2-Phenyl-4-formyl-5-chloro-3-[3-(3′-cyanoaminosulfonylbenzyl)benzyl]-3H-imidazole] registered a melting point of 75 °C. Moreover, the “Residual activity of the NCBE” value in data set [1] worked out at 24.3%.
Molecule `CCCCc1nc(SC)c(C(=O)OCC)n1Cc1ccc(Cc2cccc(S(=O)(=O)NC#N)c2)cc1` [Example 1, Ethyl 2-butyl-5-methylsulfanyl-3-[4-(3′-cyanoaminosulfonylbenzyl)benzyl]-3H-imidazole-4-carboxylate] displayed a melting point of 62 °C. The “Residual activity of the NCBE” value in data set [1] is 11.1%.

One may read the melting point as the temperature of the solid-liquid transition.

Values taken from US6573288B1, “Substituted sulphonyl cyanamides, method for producing same and their use as medicament” (Aventis Pharma Deutschland GmbH, priority 1998, dated 2003).
